Test: xn = mol fraction of the nth substance listed
Details: 100 kPa, Liquid; for viscosity: Capillary tube (Ostwald / Ubbelohde) method; for mass density: Vibrating tube method

O=C1CCCCO1 [1-oxacyclohexan-2-one] + CCCC[n+]1ccn(C)c1.O=S(=O)([N-]S(=O)(=O)C(F)(F)F)C(F)(F)F
Details | mass density [kg/m3] | viscosity [mPa·s]
293.15 K, x2 = 0 | 1108.53 | 3.68
293.15 K, x2 = 0.0532 | 1156.68 | 4.6
293.15 K, x2 = 0.1004 | 1196.3 | 5.91
293.15 K, x2 = 0.1504 | 1229.63 | 7.47
293.15 K, x2 = 0.1999 | 1257.2 | 8.95
293.15 K, x2 = 0.2988 | 1300.9 | 13.08
293.15 K, x2 = 0.4006 | 1337.77 | 17.95
293.15 K, x2 = 0.5005 | 1362.9 | 23.77
293.15 K, x2 = 0.5999 | 1384.82 | 30.89
293.15 K, x2 = 0.7 | 1402.18 | 37.58
293.15 K, x2 = 0.8013 | 1418.26 | 44.8
293.15 K, x2 = 0.8986 | 1429.23 | 52.57
298.15 K, x2 = 0 | 1103.96 | 3.3
298.15 K, x2 = 0.0532 | 1152.03 | 4.09
298.15 K, x2 = 0.1004 | 1191.61 | 5.26
298.15 K, x2 = 0.1504 | 1224.89 | 6.47
298.15 K, x2 = 0.1999 | 1252.42 | 7.78
298.15 K, x2 = 0.2988 | 1296.08 | 11.15
298.15 K, x2 = 0.4006 | 1332.91 | 15.14
298.15 K, x2 = 0.5005 | 1358.02 | 19.8
298.15 K, x2 = 0.5999 | 1379.92 | 25.62
298.15 K, x2 = 0.7 | 1397.27 | 31.17
298.15 K, x2 = 0.8013 | 1413.33 | 37.32
298.15 K, x2 = 0.8986 | 1424.29 | 43.18
303.15 K, x2 = 0 | 1099.44 | 2.98
303.15 K, x2 = 0.0532 | 1147.37 | 3.7
303.15 K, x2 = 0.1004 | 1186.86 | 4.58
303.15 K, x2 = 0.1504 | 1220.09 | 5.64
303.15 K, x2 = 0.1999 | 1247.58 | 6.74
303.15 K, x2 = 0.2988 | 1291.17 | 9.63
303.15 K, x2 = 0.4006 | 1327.96 | 12.92
303.15 K, x2 = 0.5005 | 1353.03 | 16.77
303.15 K, x2 = 0.5999 | 1374.9 | 21.34
303.15 K, x2 = 0.7 | 1392.22 | 25.71
303.15 K, x2 = 0.8013 | 1408.28 | 30.93
303.15 K, x2 = 0.8986 | 1419.22 | 35.78
308.15 K, x2 = 0 | 1094.83 | 2.7
308.15 K, x2 = 0.0532 | 1142.72 | 3.21
308.15 K, x2 = 0.1004 | 1182.16 | 4.08
308.15 K, x2 = 0.1504 | 1215.34 | 5.09
308.15 K, x2 = 0.1999 | 1242.79 | 6.06
308.15 K, x2 = 0.2988 | 1286.33 | 8.42
308.15 K, x2 = 0.4006 | 1323.08 | 11.04
308.15 K, x2 = 0.5005 | 1348.13 | 14.16
308.15 K, x2 = 0.5999 | 1369.99 | 18.33
308.15 K, x2 = 0.7 | 1387.29 | 21.9
308.15 K, x2 = 0.8013 | 1403.33 | 25.49
308.15 K, x2 = 0.8986 | 1414.26 | 29.16
313.15 K, x2 = 0 | 1090.27 | 2.47
313.15 K, x2 = 0.0532 | 1138.1 | 2.9
313.15 K, x2 = 0.1004 | 1177.47 | 3.67
313.15 K, x2 = 0.1504 | 1210.6 | 4.49
313.15 K, x2 = 0.1999 | 1238.01 | 5.31
313.15 K, x2 = 0.2988 | 1281.5 | 7.36
313.15 K, x2 = 0.4006 | 1318.2 | 9.61
313.15 K, x2 = 0.5005 | 1343.21 | 12.24
313.15 K, x2 = 0.5999 | 1365.03 | 15.74
313.15 K, x2 = 0.7 | 1382.31 | 18.59
313.15 K, x2 = 0.8013 | 1398.33 | 21.65
313.15 K, x2 = 0.8986 | 1409.25 | 24.7
318.15 K, x2 = 0 | 1085.71 | 2.25
318.15 K, x2 = 0.0532 | 1133.47 | 2.63
318.15 K, x2 = 0.1004 | 1172.79 | 3.24
318.15 K, x2 = 0.1504 | 1205.87 | 4.02
318.15 K, x2 = 0.1999 | 1233.25 | 4.72
318.15 K, x2 = 0.2988 | 1276.69 | 6.55
318.15 K, x2 = 0.4006 | 1313.34 | 8.49
318.15 K, x2 = 0.5005 | 1338.33 | 10.65
318.15 K, x2 = 0.5999 | 1360.13 | 13.7
318.15 K, x2 = 0.7 | 1377.38 | 15.98
318.15 K, x2 = 0.8013 | 1393.37 | 18.79
318.15 K, x2 = 0.8986 | 1404.27 | 21.14
323.15 K, x2 = 0 | 1081.16 | 2.09
323.15 K, x2 = 0.0532 | 1128.86 | 2.44
323.15 K, x2 = 0.1004 | 1168.12 | 2.96
323.15 K, x2 = 0.1504 | 1201.16 | 3.63
323.15 K, x2 = 0.1999 | 1228.6 | 4.26
323.15 K, x2 = 0.2988 | 1271.85 | 5.82
323.15 K, x2 = 0.4006 | 1308.45 | 7.49
323.15 K, x2 = 0.5005 | 1333.4 | 9.29
323.15 K, x2 = 0.5999 | 1355.18 | 11.2
323.15 K, x2 = 0.7 | 1372.41 | 13.85
323.15 K, x2 = 0.8013 | 1388.38 | 15.68
323.15 K, x2 = 0.8986 | 1399.26 | 17.85
